Source: ChEMBL document CHEMBL5257110, “Recent developments of imidazo[1,2-a]pyridine analogues as antituberculosis agents” (RSC Med Chem, 2023)
pIC50: −log10 of the molar value. In brackets after ≈: the same amount, converted by molar mass.

Key:
[1] = system: Mycobacterium tuberculosis; assay: Antimycobacterial activity against Mycobacterium tuberculosis H37Rv; type: functional
[2] = system: Mycobacterium tuberculosis; assay: Antimycobacterial activity against drug-sensitive Mycobacterium tuberculosis H37Rv; type: functional
[3] = system: Mycobacterium tuberculosis; assay: Antimycobacterial activity against Mycobacterium tuberculosis 7H12; type: functional
[4] = system: Mycolicibacterium smegmatis; assay: Antimycobacterial activity against Mycobacterium smegmatis; type: functional
[5] = Cytotoxicity against CHO-K1 cells; type: toxicity, cell-based, Cricetulus griseus; conditions: Chinese hamster
[6] = Microsomal stability in human liver microsomes assessed as half life; type: ADME, Microsome
[7] = system: Mycobacterium tuberculosis; assay: Antimycobacterial activity against replicating Mycobacterium tuberculosis H37Rv; type: functional
[8] = Cytotoxicity against African green monkey Vero cells assessed as reduction in cell viability; type: toxicity, cell-based, Chlorocebus sabaeus; conditions: for pIC50: African green monkey
[9] = system: Mycobacterium tuberculosis; assay: Antibacterial activity against non-replicating Mycobacterium tuberculosis H37Rv-LUX assessed as inhibition of bacterial growth incubated for 9 days under anaerobic conditions followed by 28 hrs under aerobic conditions by LORA assay; type: functional; conditions: time 244 hrs
[10] = system: Mycobacterium tuberculosis; assay: Antimycobacterial activity against Mycobacterium tuberculosis Erdman infected in BALB/c mouse model assessed as log reduction of bacterial load in lung at 200 mg/kg, po administered 5 days a week for 30 days untill day 58; type: functional; conditions: time 58 day
[11] = Aqueous solubility of the compound; type: physicochemical; conditions: aqueous medium
[12] = system: Mycobacterium tuberculosis; assay: Antimycobacterial activity against MDR-Mycobacterium tuberculosis V2475; type: functional
[13] = system: Mycobacterium tuberculosis; assay: Antimycobacterial activity against MDR-Mycobacterium tuberculosis KZN494; type: functional
[14] = Selectivity index, ratio of IC50 for cytotoxicity against African green monkey Vero cells to MIC90 for antimycobacterial activity against XDR-Mycobacterium tuberculosis R506; type: toxicity, cell-based; conditions: read-out: Selectivity Index
[15] = Selectivity index, ratio of IC50 for cytotoxicity against African green monkey Vero cells to MIC90 for antimycobacterial activity against XDR-Mycobacterium tuberculosis TF274; type: toxicity, cell-based; conditions: read-out: Selectivity Index
[16] = Selectivity index, ratio of IC50 for cytotoxicity against African green monkey Vero cells to MIC90 for antimycobacterial activity against drug-sensitive Mycobacterium tuberculosis V4207; type: toxicity, cell-based; conditions: read-out: Selectivity Index
[17] = Selectivity index, ratio of IC50 for cytotoxicity against African green monkey Vero cells to MIC90 for antimycobacterial activity against MDR-Mycobacterium tuberculosis V2475; type: toxicity, cell-based; conditions: read-out: Selectivity Index
[18] = Selectivity index, ratio of IC50 for cytotoxicity against African green monkey Vero cells to MIC90 for antimycobacterial activity against drug-sensitive Mycobacterium tuberculosis H37Rv; type: toxicity, cell-based; conditions: read-out: Selectivity Index
[19] = system: Mycobacterium tuberculosis; assay: Antimycobacterial activity against XDR-Mycobacterium tuberculosis TF274; type: functional
[20] = system: Mycobacterium tuberculosis; assay: Antimycobacterial activity against drug-sensitive Mycobacterium tuberculosis V4207; type: functional
[21] = Selectivity index, ratio of IC50 for cytotoxicity against African green monkey Vero cells to MIC90 for antimycobacterial activity against MDR-Mycobacterium tuberculosis KZN494; type: toxicity, cell-based; conditions: read-out: Selectivity Index
[22] = system: Mycobacterium tuberculosis; assay: Antimycobacterial activity against XDR-Mycobacterium tuberculosis R506; type: functional

`Cc1ccn2c(C(=O)NCc3ccccc3)c(C)nc2c1` gave an MIC99 [1] of 0.2 µM (≈ 0.0559 µg/mL).
Compound `Cc1ccc2nc(C)c(C(=O)NCc3cccs3)n2c1` has an MIC90 [2] of 0.22 µM (≈ 0.0628 µg/mL).
In the case of `CC(C)(C)OC(=O)N1CCN(c2nc(=O)c3cc(C(F)(F)F)cc([N+](=O)[O-])c3s2)CC1`, the MIC90 [3] was 0.28 µM (≈ 0.129 µg/mL).
Compound `Cc1ccn2nc(C)c(C(=O)NCc3ccc(C(F)(F)F)cc3)c2c1` has an MIC90 [1] of 0.069 µM (≈ 0.024 µg/mL).
In the case of `COc1ccn2nc(C)c(C(=O)NCc3ccc(N4CCC(c5ccc(OC(F)(F)F)cc5)CC4)cc3)c2c1`, the MIC90 [1] was 0.011 µM (≈ 0.00592 µg/mL).
`Cc1ccn2c(C(=O)N3CCN(c4nc(=O)c5cc(C(F)(F)F)cc([N+](=O)[O-])c5s4)CC3)c(C)nc2c1` showed an MIC90 [3] of 2.1 µM (≈ 1.12 µg/mL).
With `Cc1ccn2c(C(=O)NCc3ccc(C(=O)OCc4ccccc4)cc3)c(C)nc2c1` the MIC90 [3] was 0.21 µM (≈ 0.0868 µg/mL).
With `Cc1ccn2c(C(=O)NCc3ccc(C(=O)N4CCN(c5nc(=O)c6cc(C(F)(F)F)cc([N+](=O)[O-])c6s5)CC4)cc3)c(C)nc2c1` the MIC90 [3] was greater than 10 µM.
`Cc1nc(-c2ccc(F)cc2)sc1-c1cn2ccccc2n1` showed an MIC90 [4] of 90.2 µM (≈ 27.9 µg/mL).
Work on `N#Cc1cccc(Nc2cc(C(F)(F)F)ccc2-c2cnc3ccccn23)c1` yielded an MIC90 [1] of 6.08 µM (≈ 2.3 µg/mL) and a pIC50 [5] of 3.66.
`Cc1cn2c(C(=O)NCc3ccc(N4CCN(c5ccc(OC(F)(F)F)cc5)CC4)c(F)c3)c(C)nc2s1` gave a half-life [6] of 28 min, an MIC90 [7] of 0.008 µM (≈ 0.00438 µg/mL) and a CC50 ([8]; chlorocebus sabaeus) greater than 100 µM. For the same compound, the MIC90 [9] was 1.1 µM (≈ 0.602 µg/mL), the Activity [10] was 0.3 log10CFU and the solubility [11] was 50 µM (≈ 27.4 µg/mL).
Work on `Cc1nc(-c2ccc(F)cc2)sc1-c1cn2ccc(Br)cc2n1` yielded an MIC90 [4] of 53.6 µM (≈ 20.8 µg/mL).
With `CCc1ccn2c(C(=O)NCc3ccc(C)cc3)c(C)nc2c1` the MIC90 [7] was 0.004 µM (≈ 0.00123 µg/mL).
Work on `Cc1ccc(CNC(=O)Cc2c(C)nc3ccc(C)cn23)cc1` yielded an MIC90 [1] of 1.7 µM (≈ 0.523 µg/mL).
`Cc1nc(-c2ccccc2)sc1-c1cn2ccc(Br)cc2n1` showed an MIC90 [4] of 67.5 µM (≈ 25 µg/mL).
Compound `Cc1ccc2nc(C)c(C(=O)NCCCC3CCCCC3)n2c1` has an MIC90 [12] of 0.2 µM (≈ 0.0627 µg/mL), an MIC90 [13] of 0.05 µM (≈ 0.0157 µg/mL) and a selectivity ratio [14] of no less than 1024. The MIC90 [2] was 0.1 µM (≈ 0.0313 µg/mL), the selectivity ratio [15] was no less than 1024 and the selectivity ratio [16] was no less than 1024. It also gave a selectivity ratio [17] of no less than 1024, a selectivity ratio [18] of no less than 1024 and an MIC90 [19] of 0.2 µM (≈ 0.0627 µg/mL). It also gave an MIC90 [20] of 0.1 µM (≈ 0.0313 µg/mL), a selectivity ratio [21] of no less than 1024 and a pIC50 [8] of 3.92. The MIC90 [22] was 0.1 µM (≈ 0.0313 µg/mL).
With `Cc1nc2ccc(Cl)cn2c1C(=O)NCCCC1CCCCC1` the MIC90 [12] was 0.37 µM (≈ 0.124 µg/mL), the MIC90 [13] was 0.09 µM (≈ 0.03 µg/mL) and the selectivity ratio [14] was no less than 1024. It also gave an MIC90 [2] of 0.19 µM (≈ 0.0634 µg/mL), a selectivity ratio [15] of no less than 1024 and a selectivity ratio [16] of no less than 1024. The selectivity ratio [17] was no less than 1024, the selectivity ratio [18] was no less than 1024 and the MIC90 [19] was 1.5 µM (≈ 0.501 µg/mL). It also gave an MIC90 [20] of 0.37 µM (≈ 0.124 µg/mL), a selectivity ratio [21] of no less than 1024 and a pIC50 [8] of no more than 3.72. The MIC90 [22] was 0.75 µM (≈ 0.25 µg/mL).
Compound `Cc1ccc(-c2nc3ccc(C)cn3c2CC(=O)N(C)C)cc1` [ZOLPIDEM] has an MIC90 [7] of 10 µM (≈ 3.07 µg/mL).
